Earlier results in US20100119622A1, “3H-BENZOOXAZOL-2-ONE MODULATORS OF D2 RECEPTOR AND/OR 5-HT1A RECEPTOR” (AUSPEX PHARMACEUTICALS, INC., priority 2008, published 2010).

Details: healthy subjects

elimination half-life: 14 h
Structure (SMILES): O=c1[nH]c2cccc(N3CCN(Cc4cccc(-c5ccccc5)c4)CC3)c2o1 [Bifeprunox, 7-[4-[(3-Phenylphenyl)methyl]piperazin-1-yl]-3H-benzooxazol-2-one]
